According to US20240400582A1, “FOUR-MEMBERED FUSED RING COMPOUND AND PREPARATION METHOD AND USE THEREOF” (JIANGSU HANSOH PHARMACEUTICAL GROUP CO., LTD., priority 2021, published 2024):

Columns and labels:
[1] = test system: human chronic myeloid leukemia cell line KCL22-s xenograft tumor; experiment: Anti-tumor efficacy in KCL22-s subcutaneous xenograft tumor model; type: in vivo, BALB/c nude mouse; settings: oral, dosing cycle 15 days
Protocol: To evaluate the efficacy of the test compound on the human chronic myeloid leukemia cell strain KCL22-s in the BALB/c nude mouse subcutaneous xenograft tumor model.
BALB/c nude mice, 8-10 weeks.
The resuscitated cells were placed in a cell culture flask (the cell type, date, name of the person for culture and so on were marked on the flask wall) and then placed in a CO2 incubator (the incubator temperature was 37° C. and the CO2 concentration was 5%) for incubation. • b, The cells were passaged. After passage, the cells continued to be cultured in the CO2 incubator. This process was repeated until the cell number met the in vivo drug efficacy requirements. • c, The cultured cells were collected and counted with a fully automatic cell counter.
• a, According to the tumor growth, the tumor was measured on the 15th day after inoculation and the tumor size was calculated.

ABL1 WT kinase = ABL1 WT kinase (Homo sapiens (Human), UniProt P00519); experiment: In vitro enzymatic inhibitory activity against ABL1 WT kinase (capillary electrophoresis, EZ reader); type: biochemical; settings: maximum concentration 1 μM
Protocol: Capillary electrophoresis was used to detect the phosphorylation conversion rate of the substrate peptide to determine the IC50 value of the test compound for inhibiting the kinase (ABL1-WT). The maximum concentration of the compound tested in the test was 1000 nM, with 3-fold dilution, and a total of 12 concentrations (1000-0.0056 nM). First, an enzyme reaction system (the concentration of enzyme ABL1-WT was 1.3 nM, the concentration of substrate FLPeptide2 was 1.5 μM, and the reaction factor was 10 mM MgCl2) was prepared. After incubation at room temperature for 30 min, […] of 4×ATP solution was added to start the enzyme reaction. After reacting at room temperature for 90 min, the reaction was stopped by adding a stop buffer (containing 0.5 M EDTA). The sample was analyzed using an EZ reader (analysis conditions: pressure −1.5 PSI, upper voltage current −2250V, lower voltage current −500V, separation time 40 sec, and system delay 100.0 sec).
From the conversion rate read by EZ Reader, the remaining activity was calculated according to the following formula.
IC50 was calculated using XLfit, and IC50 was calculated by Formula 201 as the fitting formula.

Ba/F3 BCR-ABL1-T315I = experiment: Inhibition of proliferation of Ba/F3 BCR-ABL1-T315I cells (CellTiter-Glo); type: cell-based; settings: Mus musculus, BaF3, 72 h
Excerpt: (§1) To evaluate the inhibitory activity of the compound of the present invention against proliferation of the Ba/F3 BCR-ABL1-T315I, Ba/F3 BCR-ABL1-E255K, Ba/F3 BCR-ABL1-E255V, and Ba/F3 BCR-ABL1-G250E mutation models of mouse primary B cells cultured in vitro.
(§2) CellTiter-Glo® Luminescent Cell Viability Assay was used to detect the inhibitory effect of drugs on tumor cell proliferation and growth. The logarithmic growth phase cells cultured overnight were directly taken, blown, mixed and counted, the cell density was adjusted according to different cell density requirements, and the cells were prepared into a cell suspension and plated on a 96-well plate. Drugs at different concentrations were added, 3 replicate wells were set for each concentration, and corresponding vehicle controls were eset. […] The maximum concentration of the compounds detected in other cells was 500 nM, with 3.16-fold gradient dilution, and a total of 9 concentrations (500-0.0503 nM). […] The culture plate and its contents were equilibrated to room temperature, the CellTiter-Glo® reagent was added, the contents were mixed on a shaker for 5 min to induce cell lysis, the culture plate was further incubated at room temperature in the dark for 20 min, and the luminescence was read with a microplate reader.

Ba/F3 BCR-ABL1-E255V = experiment: Inhibition of proliferation of Ba/F3 BCR-ABL1-E255V cells (CellTiter-Glo); type: cell-based; settings: Mus musculus, BaF3, 72 h
Excerpt: as §1, §2

Ba/F3 BCR-ABL1-E255K = experiment: Inhibition of proliferation of Ba/F3 BCR-ABL1-E255K cells (CellTiter-Glo); type: cell-based; settings: Mus musculus, BaF3, 72 h
Excerpt: as §1, §2

Ba/F3 BCR-ABL1-G250E = experiment: Inhibition of proliferation of Ba/F3 BCR-ABL1-G250E cells (CellTiter-Glo); type: cell-based; settings: Mus musculus, BaF3, 72 h
Excerpt: as §1, §2

K562 = experiment: Inhibition of proliferation of K562 cells (CellTiter-Glo); type: cell-based; settings: Homo sapiens, 72 h
Excerpt: (§3) To evaluate the inhibitory activity of the compounds of the present invention against proliferation of human erythroleukemia cells K562, human peripheral blood basophilic leukemia cells Ku812, and human chronic myelogenous leukemia cells KCL22-s and KCL22-r cultured in vitro.
(§4) CellTiter-Glo® Luminescent Cell Viability Assay was used to detect the inhibitory effect of drugs on tumor cell proliferation and growth. The logarithmic growth phase cells cultured overnight were directly taken, blown, mixed and counted, the cell density was adjusted according to different cell density requirements, and the cells were prepared into a cell suspension and plated on a 96-well plate. Drugs at different concentrations were added, three replicate wells were set for each concentration, and corresponding solvent controls were set. The maximum concentration of compound detected was 500 nM, with 3-fold gradient dilution, and a total of 9 concentrations (500-0.076 nM). […] The culture plate and its contents were equilibrated to room temperature, the CellTiter-Glo® reagent was added, the contents were mixed on a shaker for 3 min to induce cell lysis, the culture plate was further incubated at room temperature in the dark for 10 min, and the chemiluminescence signal value was determined by a microplate reader (BioTek SynergyH1).

Ku812 = experiment: Inhibition of proliferation of Ku812 cells (CellTiter-Glo); type: cell-based; settings: Homo sapiens, 72 h
Excerpt: as §3, §4

KCL22-s = experiment: Inhibition of proliferation of KCL22-s cells (CellTiter-Glo); type: cell-based; settings: Homo sapiens, 72 h, imatinib-sensitive strain
Excerpt: as §3, §4

KCL22-r = experiment: Inhibition of proliferation of KCL22-r cells (CellTiter-Glo); type: cell-based; settings: Homo sapiens, 72 h, imatinib-resistant strain
Excerpt: as §3, §4

ABL1 WT kinase, sequence (P00519 whole entry): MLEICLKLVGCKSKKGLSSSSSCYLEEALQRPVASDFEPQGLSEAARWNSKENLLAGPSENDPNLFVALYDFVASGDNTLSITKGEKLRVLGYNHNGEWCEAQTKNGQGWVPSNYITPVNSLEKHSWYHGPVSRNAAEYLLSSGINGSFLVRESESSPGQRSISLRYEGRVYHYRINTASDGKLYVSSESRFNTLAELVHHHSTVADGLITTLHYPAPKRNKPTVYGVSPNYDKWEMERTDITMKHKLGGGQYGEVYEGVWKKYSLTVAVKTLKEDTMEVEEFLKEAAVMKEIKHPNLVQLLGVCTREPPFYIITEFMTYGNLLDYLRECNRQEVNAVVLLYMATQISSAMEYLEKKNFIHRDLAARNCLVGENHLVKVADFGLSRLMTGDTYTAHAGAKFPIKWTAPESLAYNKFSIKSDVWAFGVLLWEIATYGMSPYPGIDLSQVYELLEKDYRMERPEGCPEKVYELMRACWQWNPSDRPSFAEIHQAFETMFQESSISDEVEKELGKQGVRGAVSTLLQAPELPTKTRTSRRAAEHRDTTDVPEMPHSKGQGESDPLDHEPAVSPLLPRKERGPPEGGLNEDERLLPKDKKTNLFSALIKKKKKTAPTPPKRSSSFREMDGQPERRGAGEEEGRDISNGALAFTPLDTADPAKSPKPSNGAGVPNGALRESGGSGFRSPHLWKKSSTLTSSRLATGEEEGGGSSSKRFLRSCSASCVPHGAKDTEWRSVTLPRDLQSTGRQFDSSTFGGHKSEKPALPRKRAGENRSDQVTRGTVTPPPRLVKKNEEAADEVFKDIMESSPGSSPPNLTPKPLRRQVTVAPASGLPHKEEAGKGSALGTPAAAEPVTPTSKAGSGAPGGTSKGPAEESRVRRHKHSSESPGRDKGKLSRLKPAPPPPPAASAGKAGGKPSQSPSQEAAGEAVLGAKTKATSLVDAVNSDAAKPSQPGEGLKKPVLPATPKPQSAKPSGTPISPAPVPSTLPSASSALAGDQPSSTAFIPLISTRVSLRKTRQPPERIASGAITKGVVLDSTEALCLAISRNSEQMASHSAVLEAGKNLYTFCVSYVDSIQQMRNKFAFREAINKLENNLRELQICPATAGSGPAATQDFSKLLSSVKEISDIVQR

## Cc1ccc(NC(=O)c2ccc(CN3CCN(C)CC3)cc2)cc1Nc1nccc(-c2cccnc2)n1 [Imatinib, reference compound]
[1]; 75 mg/kg qd
  T/C: 46.92%
  TGI: 56.03%

## C[C@@H]1COC2NC=NC=C2c2cc(C(=O)Nc3ccc(OC(F)(F)Cl)cc3)cc3nc(C(F)F)n1c23.Cc1ccc(S(=O)(=O)O)cc1 (stereo partly drawn) [Example 1, (3R)-N-(4-(chlorodifluoromethoxy)phenyl)-2-(difluoromethyl)-3-methyl-3,4,5a,6-tetrahydro-5-oxa-1,2a,6,8-tetraazabenzo[4,5]cyclooctyl[1,2,3-cd]indene-11-carboxamide p-toluenesulfonate Salt]
ABL1 WT kinase
  IC50: 0.43 nM
Ba/F3 BCR-ABL1-T315I
  IC50: 46.8 nM
Ba/F3 BCR-ABL1-E255V
  IC50: 7.15 nM
Ba/F3 BCR-ABL1-E255K
  IC50: 26.3 nM
Ba/F3 BCR-ABL1-G250E
  IC50: 5.36 nM
K562
  IC50: 13 nM
Ku812
  IC50: 4.13 nM
KCL22-s
  IC50: 2.99 nM
KCL22-r
  IC50: 14.6 nM
[1]; 1.5 mg/kg bid
  T/C: 7.05%
  TGI: 98.20%
  Tumor volume: 143 ± 35 mm^3
[1]; 3 mg/kg bid
  T/C: 0.69%
  TGI: 187.08%
  Tumor volume: 14 ± 5 mm^3
[1]; 3 mg/kg qd
  T/C: 3.98%
  TGI: 127.26%
  Tumor volume: 81 ± 19 mm^3
[1]; 7.5 mg/kg bid
  T/C: 0.52%
  TGI: 190.62%
  Tumor volume: 11 ± 7 mm^3
